Data on 62 compounds can be found in BindingDB's records for patent US10188615 (ACUCELA INC., 2019).

SMILES strings stand for the structures.

The assay has as its target T1, Retinoid isomerohydrolase (Human, UniProt Q16518).
T1 sequence (Q16518 whole entry): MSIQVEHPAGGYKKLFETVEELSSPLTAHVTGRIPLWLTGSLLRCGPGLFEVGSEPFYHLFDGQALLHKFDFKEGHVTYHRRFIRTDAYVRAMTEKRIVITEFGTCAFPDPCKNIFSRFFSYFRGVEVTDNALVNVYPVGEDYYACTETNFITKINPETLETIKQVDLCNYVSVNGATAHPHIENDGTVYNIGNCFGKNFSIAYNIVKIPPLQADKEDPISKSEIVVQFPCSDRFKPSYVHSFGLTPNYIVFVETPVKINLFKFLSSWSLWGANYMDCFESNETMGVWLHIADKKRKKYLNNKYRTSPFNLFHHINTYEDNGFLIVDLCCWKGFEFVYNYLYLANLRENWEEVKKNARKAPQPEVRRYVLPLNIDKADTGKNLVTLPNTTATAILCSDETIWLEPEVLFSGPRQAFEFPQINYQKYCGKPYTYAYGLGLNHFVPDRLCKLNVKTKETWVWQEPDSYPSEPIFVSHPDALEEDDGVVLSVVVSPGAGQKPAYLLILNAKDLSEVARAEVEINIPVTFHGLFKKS
Kind of assay: In Vitro Isomerase Inhibition Assay.
For orientation: IC50 means the point on the concentration scale where inhibition reaches its midpoint. Low readings indicate inhibition by little substance, high ones a need for much substance. With `NCCC(O)c1cccc(OCC2CCCCCCC2)c1` (configuration not stated) [US10188615, Example 106], the IC50 entry is “in the range around 55 nM”. For `CC(C)CCOc1cccc(C(O)CCN)c1` (configuration not stated) [US10188615, Example 107], the IC50 result was “in the range around 55 nM”.

Regarding `COCCCOc1cccc(C(O)CCN)c1` (configuration not stated) [US10188615, Example 108], the IC50 result is “in the range around 55 nM”. For `NCCC(O)c1cccc(OCCO)c1` (configuration not stated) [US10188615, Example 109] the value was “in the range around 5500 nM”; for `COCCOc1cccc(OCCN)c1` [US10188615, Example 113], “in the range around 5500 nM”. Consider `NCCC(O)c1cccc(OCCCCOCc2ccccc2)c1` (configuration not stated) [US10188615, Example 114], for which the IC50 result was “in the range around 55 nM”. Turning to `NCCC(O)c1cccc(OCCCCCOCc2ccccc2)c1` (configuration not stated) [US10188615, Example 115], the IC50 entry is “in the range around 55 nM”. For `NCCCc1cccc(OCc2nccs2)c1` [US10188615, Example 122], the IC50 entry is “in the range around 550 nM”. For `NCCSc1cccc(OCC2CCCCC2)c1` [US10188615, Example 123] the value was “in the range around 55 nM”; for `NCC[S+]([O-])c1cccc(OCC2CCCCC2)c1` (configuration not stated) [US10188615, Example 124], “in the range around 550 nM”; for `NCCS(=O)(=O)c1cccc(OCC2CCCCC2)c1` [US10188615, Example 125], “in the range around 550 nM”. For `NCC/C(=N\N)c1cccc(OCC2CCCCC2)c1` [US10188615, Example 126] the value was “in the range around 550 nM”; for `NCC(O)c1cccc(OCC2CCCCC2)c1` (configuration not stated) [US10188615, Example 127], “in the range around 550 nM”. With `CN(CCN)c1cccc(OCC2CCCCC2)c1` [US10188615, Example 128], the IC50 result was “in the range around 5500 nM”.

For the compound `NCCNc1cccc(OCC2CCCCC2)c1` [US10188615, Example 129], the IC50 entry is “in the range around 550 nM”. For `N=C(N)CC(O)c1cccc(OCC2CCCCC2)c1` (configuration not stated) [US10188615, Example 130] the value was “in the range around 55 nM”. For the compound `NCCC(O)c1cccc(OCCCOCc2ccccc2)c1` (configuration not stated) [US10188615, Example 131], the IC50 entry was “in the range around 55 nM”. As for `CNC(=O)CCCOc1cccc(OCCN)c1` [US10188615, Example 133], the IC50 entry was “in the range around 5500 nM”. `NCCOc1cccc(OCCCCCOCc2ccccc2)c1` [US10188615, Example 134]: the concentration for half-maximal inhibition (IC50) result is “in the range around 5500 nM”. With `NCCCc1cccc(OCC2(O)CCCCCCC2)c1` [US10188615, Example 135], the half-inhibitory concentration (IC50) entry was “in the range around 550 nM”. Turning to `NCCCc1cccc(OCCCCCOCc2ccccc2)c1` [US10188615, Example 136], the 50% inhibitory concentration (IC50) result was “in the range around 5500 nM”. `Cc1cccc(C)c1COc1cccc(CCCN)c1` [US10188615, Example 137]: the IC50 entry is “in the range around 5500 nM”. For `CN(C)C(=O)CCCOc1cccc(OCCN)c1` [US10188615, Example 138] the value was “in the range around 5500 nM”; for `NCCOc1cccc(OCC2(O)CCCCCCC2)c1` [US10188615, Example 139], “in the range around 550 nM”; for `Cc1cccc(C)c1COc1cccc(OCCN)c1` [US10188615, Example 140], “in the range around 550 nM”.

Take `NCCCc1cc(CO)cc(OCC2CCCCC2)c1` [US10188615, Example 142]: the IC50 entry is “in the range around 5500 nM”. For `NCCOc1cccc(OCCCCCO)c1` [US10188615, Example 143], the IC50 entry is “in the range around 550 nM”.

In the case of `NCCOc1cccc(OCCCC(N)=O)c1` [US10188615, Example 144], the 50% inhibitory concentration (IC50) result is “in the range around 5500 nM”. For `NCCOc1cccc(OCC(O)c2ccccc2)c1` (configuration not stated) [US10188615, Example 145], the IC50 entry is “in the range around 5500 nM”. On to `NCCC(O)c1cc(OCC2CCCCC2)ccc1Br` (configuration not stated) [US10188615, Example 146], for which the IC50 result was “in the range around 5500 nM”. Consider `NCCC(O)c1cccc(OCCCC(N)=O)c1` (configuration not stated) [US10188615, Example 149], for which the IC50 result is “in the range around 5500 nM”. With `NCCCc1cccc(OCC(O)c2ccccc2)c1` (configuration not stated) [US10188615, Example 150], the IC50 entry is “in the range around 550 nM”.

With `NCCCc1cccc(OCCCCCO)c1` [US10188615, Example 151], the IC50 entry was “in the range around 550 nM”. For `CC(C)C(O)COc1cccc(CCCN)c1` (configuration not stated) [US10188615, Example 152] the value was “in the range around 550 nM”; for `CC(C)C(O)COc1cccc(OCCN)c1` (configuration not stated) [US10188615, Example 153], “in the range around 550 nM”. For `Cc1cc(OCCN)cc(OCC2CCCCC2)c1` [US10188615, Example 154] the value was “in the range around 55 nM”; for `NCCOc1cccc(OCCCCO)c1` [US10188615, Example 156], “in the range around 550 nM”. In the case of `CN(C)C(=O)CCCOc1cccc(C(O)CCN)c1` (configuration not stated) [US10188615, Example 157], the IC50 result is “in the range around 550 nM”. As to `CC(C)C(O)COc1cccc(C(O)CCN)c1` (configuration not stated) [US10188615, Example 158], the IC50 entry was “in the range around 55 nM”. Consider `CCCC(O)COc1cccc(OCCN)c1` (configuration not stated) [US10188615, Example 159], for which the IC50 entry was “in the range around 5500 nM”.

Consider `Cc1ccc(OCC2CCCCC2)cc1OCCN` [US10188615, Example 160], for which the IC50 entry is “in the range around 5500 nM”. For `NCCC(O)c1cccc(OCC(O)c2ccccc2)c1` (configuration not stated) [US10188615, Example 161], the IC50 result was “in the range around 55 nM”.

Take `NCCCc1cccc(OCC2CCCCO2)c1` (configuration not stated) [US10188615, Example 162]: the concentration for half-maximal inhibition (IC50) result is “in the range around 550 nM”. Consider `CCCC(O)COc1cccc(C(O)CCN)c1` (configuration not stated) [US10188615, Example 163], for which the IC50 result was “in the range around 55 nM”.

As to `Cc1c(OCCN)cccc1OCC1CCCCC1` [US10188615, Example 164], the half-maximal inhibitory concentration (IC50) result was “in the range around 550 nM”.

As for `NCCC(O)c1cccc(OCCCCO)c1` (configuration not stated) [US10188615, Example 165], the IC50 result was “in the range around 550 nM”. `NCCC(O)c1cccc(OCCCCCO)c1` (configuration not stated) [US10188615, Example 166]: the IC50 entry is “in the range around 55 nM”. For `CCCC(O)COc1cccc(CCCN)c1` (configuration not stated) [US10188615, Example 167] the value was “in the range around 550 nM”; for `NCCCc1cc(F)cc(OCC2CCCCC2)c1` [US10188615, Example 168], “in the range around 550 nM”. With `CC(=O)O[C@@H]1CCCC[C@H]1COc1cccc([C@H](O)CCN)c1` [US10188615, Example 173], the IC50 result was “in the range around 55 nM”.

Consider `CC(=O)O[C@@H]1CCCC[C@@H]1COc1cccc([C@H](O)CCN)c1` [US10188615, Example 174], for which the IC50 result was “in the range around 55 nM”. For `NC[C@H](O)[C@@H](O)c1cccc(OCC2CCCCC2)c1` [US10188615, Example 177] the value was 100 to 1000 nM. On to `NCC[C@@H](O)c1cc(O)cc(OCC2CCCCC2)c1` [US10188615, Example 179], for which the IC50 result is “in the range around 55 nM”.

Consider `NC[C@@H](O)[C@@H](O)c1cccc(OCC2CCCCC2)c1` [US10188615, Example 180], for which the IC50 result was “in the range around 55 nM”. For `CNCCC(=O)c1cccc(OCC2CCCCC2)c1` [US10188615, Example 181] the value was “in the range around 550 nM”; for `NCCCCc1cccc(OCC2CCCCC2)c1` [US10188615, Example 184], “in the range around 5500 nM”; for `CNCCC(O)c1cccc(OCC2CCCCC2)c1` (configuration not stated) [US10188615, Example 187], “in the range around 55 nM”. For the compound `N=C(N)NCc1cccc(OCC2CCCCC2)c1` [US10188615, Example 190], the IC50 entry is “in the range around 5500 nM”. In the case of `NCCC(F)c1cccc(OCC2CCCCC2)c1` (configuration not stated) [US10188615, Example 193], the IC50 entry is “in the range around 55 nM”. In the case of `NCCC#Cc1cccc(OCC2CCCCC2)c1` [US10188615, Example 196], the IC50 entry is “in the range around 5500 nM”.

As to `NCC#Cc1cccc(OCC2CCCCC2)c1` [US10188615, Example 197], the IC50 entry was “in the range around 55 nM”. For `NC/C=C/c1cc(F)cc(OCC2CCCCC2)c1` [US10188615, Example 198] the value was “in the range around 550 nM”.
